Reference: patent US5922545A, “In vitro peptide and antibody display libraries” (Affymax Technologies N.V., priority 1997, dated 1999)

What was measured:
[1] = system: peptidyl transferase activity of 50S ribosomal subunits; settings: cited from earlier work
mAb D32.39 [2] = assay: competition binding of radiolabelled polysomes to immobilized mAb D32.39; settings: wells preincubated with 10 μH dynorphin B peptide for 1 hr at 4° C.
Experimental: FIG. 2. Specific binding of polysomes to mAb D32.39. Radiolabelled polysomes were isolated from reactions programmed with 1.5 μg of HindIII-linearized plasmid pLM138 or pLM142 and bound to microtiter wells containing the immobilized mAb. The recovered mIRNA was quantitated by TCA precipitation. (Panel A) Binding of polysomes containing the D32.39 epitope (closed boxes) or control (open boxes) sequences. (Panel B) Competition binding assay. Microtiter wells were preincubated with polysome buffer in the absence or presence of 10 μH dynorphin B peptide for 1 hr at 4° C. prior to adding 131,000 cpm of polysomes containing the D32.39 epitope (RQFKVVT) (SEQ ID NO:18) or control (VFKRTVQ) (SEQ ID NO:15) sequences.
Dynal beads were prepared according to the manufacturer. Microtiter wells were prepared for polysome binding by incubating each well with mAb D32.39 (5 μg per well) in PBS (10 mM sodium phosphate pH 7.4/120 mM NaCl/2.7 mM KCl) for 1 hr at 37° C., washing with PBS, blocking with PBS/1% nonfat milk for 1 hr at 37° C. and washing again with polysome buffer. Polysomes, as indicated, were incubated with the antibody for 2 hr at 4° C. […]
Specific Binding of Polysomes to mAb D32.39. The fraction of polysomes capable of binding specifically to mAb D32.39 via the nascent peptide was determined. […]

mAb D32.39 [3] = assay: competition binding assay of synthesized peptides for mAb D32.39; settings: 50 pM tracer peptide containing the D32.39 epitope sequence, IC50 should approximate the Kd, read-out: binding affinity for mAb D32.39 (IC50)
Excerpt: FIG. 6. (SEQ. ID NO: 50-74) Amino acid alignment of selected peptide sequences with dynorphin B. The six-residue D32.39 epitope sequence of dynorphin B and the peptide regions similar to it are shown in the box. A total of 6, 13, 19, and 9 independent clones were sequenced from rounds 2, 3, 4 and 5, respectively. The frequency indicates the number of times each sequence occurred among the clones isolated from each round, and the asterisks indicate identical sequences found in different rounds. Binding affinities for D32.39 were determined by chemically synthesizing the indicated peptide sequences and measuring the IC50 as described in the Experimental Examples.
Peptides were synthesized with an Applied Biosystems model 431A peptide synthesizer using Fmoc-protected amino acids. The peptides were purified to greater than 90% purity by HPLC and confirmed by mass spectroscopy. The competition binding assay was performed and included a low concentration (50 pM) of the tracer peptide containing the D32.39 epitope sequence.
Peptides corresponding to some of the enriched sequences were chemically synthesized, purified and their identity confirmed by mass spectrometry. A competition binding assay was used to estimate their affinity for the mAb D32.39 and under the conditions of the assays the IC50 value should approximate the Kd. […]

[4] = target: iron response element (IRE); settings: binds as a monomer; read-out: dissociation constant; cited from earlier work

Molecule: MSTSKNAD [cmlA 8-mer peptide]
- inhibitory activity relative to chloramphenicol ([1]; as inhibitory as chloramphenicol): about 50%
- inhibitory activity relative to the cat 5-mer ([1]; more inhibitory than the cat 5-mer): about 5 fold

Molecule: dynorphin B
- blocking of binding of D32.39 epitope polysomes to mAb D32.39 (mAb D32.39 [2]): binding was blocked
- IC50 (mAb D32.39 [3]): 290 pM

B1: IREBP: iron response element binding protein (98.4 kDal), RNA-binding protein (protein, UniProt P21399 1-889, looked up)
Cytoplasmic aconitate …: MSNPFAHLAEPLDPVQPGKKFFNLNKLEDSRYGRLPFSIRVLLEAAIRNCDEFLVKKQDIENILHWNVTQHKNIEVPFKPARVILQDFTGVPAVVDFAAMRDAVKKLGGDPEKINPVCPADLVIDHSIQVDFNRRADSLQKNQDLEFERNRERFEFLKWGSQAFHNMRIIPPGSGIIHQVNLEYLARVVFDQDGYYYPDSLVGTDSHTTMIDGLGILGWGVGGIEAEAVMLGQPISMVLPQVIGYRLMGKPHPLVTSTDIVLTITKHLRQVGVVGKFVEFFGPGVAQLSIADRATIANMCPEYGATAAFFPVDEVSITYLVQTGRDEEKLKYIKKYLQAVGMFRDFNDPSQDPDFTQVVELDLKTVVPCCSGPKRPQDKVAVSDMKKDFESCLGAKQGFKGFQVAPEHHNDHKTFIYDNTEFTLAHGSVVIAAITSCTNTSNPSVMLGAGLLAKKAVDAGLNVMPYIKTSLSPGSGVVTYYLQESGVMPYLSQLGFDVVGYGCMTCIGNSGPLPEPVVEAITQGDLVAVGVLSGNRNFEGRVHPNTRANYLASPPLVIAYAIAGTIRIDFEKEPLGVNAKGQQVFLKDIWPTRDEIQAVERQYVIPGMFKEVYQKIETVNESWNALATPSDKLFFWNSKSTYIKSPPFFENLTLDLQPPKSIVDAYVLLNLGDSVTTDHISPAGNIARNSPAARYLTNRGLTPREFNSYGSRRGNDAVMARGTFANIRLLNRFLNKQAPQTIHLPSGEILDVFDAAERYQQAGLPLIVLAGKEYGAGSSRDWAAKGPFLLGIKAVLAESYERIHRSNLVGMGVIPLEYLPGENADALGLTGQERYTIIIPENLKPQMKVQVKLDTGKTFQAVMRFDTDVELTYFLNGGILNYMIRKMAK
- Kd [4]: 20 to 50 pM
